Test results taken from ChEMBL document CHEMBL1201862, “PubChem BioAssay data set” (2004).
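Protocol summary: plate cells (96-well), add compound at 5 concentrations, incubate 48 h, interpolate endpoints linearly. The concentration for 50% growth inhibition is given as GI50.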 Calls of active or inactive are those of the source. Cut-off read from the data, not from the text of the source: active = GI50 up to about 1.1 µM and inactive = higher.

Columns and labels:
Test in all cases: inhibition of tumour cell growth, NCI panel, 48 h
PC-3 = tested on: PC-3
IGROV-1 = tested on: IGROV-1
CCRF-CEM = tested on: CCRF-CEM
OVCAR-5 = tested on: OVCAR-5
SK-MEL-5 = tested on: SK-MEL-5
Malme-3M = tested on: Malme-3M
KM12 = tested on: KM12
OVCAR-3 = tested on: OVCAR-3
SNB-19 = tested on: SNB-19
M14 = tested on: M14
U-251 = tested on: U-251
HT-29 = tested on: HT-29
RPMI-8226 = tested on: RPMI-8226
HOP-92 = tested on: HOP-92
NCI-H460 = tested on: NCI-H460
OVCAR-8 = tested on: OVCAR-8
SW-620 = tested on: SW-620
OVCAR-4 = tested on: OVCAR-4
DU-145 = tested on: DU-145
T47D = tested on: T47D

SMILES	GI50 (PC-3)	GI50 (IGROV-1)	GI50 (CCRF-CEM)	GI50 (OVCAR-5)	GI50 (SK-MEL-5)	GI50 (Malme-3M)	GI50 (KM12)	GI50 (OVCAR-3)	GI50 (SNB-19)	GI50 (M14)	GI50 (U-251)	GI50 (HT-29)	GI50 (RPMI-8226)	GI50 (HOP-92)	GI50 (NCI-H460)	GI50 (OVCAR-8)	GI50 (SW-620)	GI50 (OVCAR-4)	GI50 (DU-145)	GI50 (T47D)
CCC/C(Cl)=N\OC(=O)Nc1ccc(F)c([N+](=O)[O-])c1	15.2 µM (inactive)	15.3 µM (inactive)	3.74 µM (inactive)	20.4 µM (inactive)	16.7 µM (inactive)	10.9 µM (inactive)	16.7 µM (inactive)	15.6 µM (inactive)	15.2 µM (inactive)	14.7 µM (inactive)	18.3 µM (inactive)	20.1 µM (inactive)	9.51 µM (inactive)	15 µM (inactive)	12.5 µM (inactive)	17.5 µM (inactive)	4.8 µM (inactive)	15.6 µM (inactive)	14.7 µM (inactive)	–
CC1=CC(=O)c2ccc3c4ccccc4n(C)c3c2C1=O	–	16.9 µM (inactive)	20.8 µM (inactive)	> 100 µM (inactive)	13.6 µM (inactive)	6.67 µM (inactive)	34.4 µM (inactive)	54.8 µM (inactive)	39.1 µM (inactive)	17.8 µM (inactive)	49 µM (inactive)	> 31.6 µM (inactive)	> 41.2 µM (inactive)	> 46.5 µM (inactive)	29.4 µM (inactive)	58.9 µM (inactive)	92.3 µM (inactive)	74 µM (inactive)	63.2 µM (inactive)	33.8 µM (inactive)
C=CCc1ccc(O)c(-c2cc(C3Oc4c(-c5cc(CC=C)ccc5O)cc(O)cc4[C@@H]3CO)ccc2O)c1 (stereo partly drawn)	–	20.3 µM (inactive)	20.7 µM (inactive)	56.1 µM (inactive)	16 µM (inactive)	50.4 µM (inactive)	27.4 µM (inactive)	20.1 µM (inactive)	28.5 µM (inactive)	37.5 µM (inactive)	25.2 µM (inactive)	33.3 µM (inactive)	24.9 µM (inactive)	12.2 µM (inactive)	66.2 µM (inactive)	42.4 µM (inactive)	15.7 µM (inactive)	36.9 µM (inactive)	–	–
COC1=NC(NC2OCC(O)C(O)C2O)=C(NC(C)=O)CN1C (stereo not drawn)	–	–	> 100 µM (inactive)	> 100 µM (inactive)	> 100 µM (inactive)	> 100 µM (inactive)	> 100 µM (inactive)	> 100 µM (inactive)	> 100 µM (inactive)	> 100 µM (inactive)	–	> 100 µM (inactive)	> 100 µM (inactive)	> 100 µM (inactive)	> 100 µM (inactive)	> 100 µM (inactive)	> 100 µM (inactive)	> 100 µM (inactive)	> 100 µM (inactive)	> 100 µM (inactive)
CCCCCCCCCCCCCCCC(=O)NC1CCc2cc(O)c(O)c(O)c2-c2ccc(SC)c(=O)cc21 (stereo not drawn)	–	8.39 µM (inactive)	3.93 µM (inactive)	12.9 µM (inactive)	4.42 µM (inactive)	10.4 µM (inactive)	6.22 µM (inactive)	5.28 µM (inactive)	9.29 µM (inactive)	8.02 µM (inactive)	1.29 µM (inactive)	13.1 µM (inactive)	1.61 µM (inactive)	2.51 µM (inactive)	5.77 µM (inactive)	7.67 µM (inactive)	4.84 µM (inactive)	10.3 µM (inactive)	–	–
CN(C(=O)c1ccco1)C(=S)N1CCN(c2ccccc2)CC1	–	> 100 µM (inactive)	> 100 µM (inactive)	> 100 µM (inactive)	> 100 µM (inactive)	> 100 µM (inactive)	> 100 µM (inactive)	> 100 µM (inactive)	> 100 µM (inactive)	> 100 µM (inactive)	> 100 µM (inactive)	> 100 µM (inactive)	> 100 µM (inactive)	> 100 µM (inactive)	> 100 µM (inactive)	> 100 µM (inactive)	> 100 µM (inactive)	> 100 µM (inactive)	–	–
O=C1C(=Cc2ccc(F)cc2)C(=O)c2ccccc21	–	> 100 µM (inactive)	41.2 µM (inactive)	> 100 µM (inactive)	> 100 µM (inactive)	> 100 µM (inactive)	> 100 µM (inactive)	> 100 µM (inactive)	> 100 µM (inactive)	> 100 µM (inactive)	> 100 µM (inactive)	> 100 µM (inactive)	49.8 µM (inactive)	0.925 µM (active)	> 100 µM (inactive)	> 100 µM (inactive)	> 100 µM (inactive)	> 100 µM (inactive)	–	–
Cc1ccc(S(=O)(=O)N2CCN(S(=O)(=O)c3ccc(C)cc3)Cc3ccccc3C2)cc1	–	> 100 µM (inactive)	> 100 µM (inactive)	> 10 µM (inactive)	29.3 µM (inactive)	> 100 µM (inactive)	> 100 µM (inactive)	56.8 µM (inactive)	21.6 µM (inactive)	33 µM (inactive)	–	> 100 µM (inactive)	> 100 µM (inactive)	–	> 100 µM (inactive)	82.6 µM (inactive)	> 100 µM (inactive)	18.8 µM (inactive)	> 100 µM (inactive)	28.2 µM (inactive)
O=c1c2ccccc2nc(-c2ccccc2Cl)n1NC1OC(CO)C(O)C(O)C1O (stereo not drawn)	–	> 100 µM (inactive)	> 100 µM (inactive)	> 100 µM (inactive)	> 100 µM (inactive)	> 100 µM (inactive)	> 100 µM (inactive)	> 100 µM (inactive)	> 100 µM (inactive)	> 100 µM (inactive)	> 100 µM (inactive)	> 100 µM (inactive)	> 100 µM (inactive)	> 100 µM (inactive)	> 100 µM (inactive)	> 100 µM (inactive)	> 100 µM (inactive)	> 100 µM (inactive)	–	–
O=[N+]([O-])c1cc(/C=N/NS(=O)(=O)c2ccc(F)cc2)c(O)c([N+](=O)[O-])c1	–	69.5 µM (inactive)	37.6 µM (inactive)	> 100 µM (inactive)	25.7 µM (inactive)	63.1 µM (inactive)	21 µM (inactive)	29 µM (inactive)	33.7 µM (inactive)	22.9 µM (inactive)	23.8 µM (inactive)	22.3 µM (inactive)	27.7 µM (inactive)	38.4 µM (inactive)	28.8 µM (inactive)	24.8 µM (inactive)	41.3 µM (inactive)	58.1 µM (inactive)	–	–
C=CCC1C(=O)CC2(C)CC(=O)C(CC=C)C12C (stereo not drawn)	–	> 100 µM (inactive)	> 100 µM (inactive)	> 100 µM (inactive)	> 100 µM (inactive)	> 100 µM (inactive)	> 100 µM (inactive)	> 100 µM (inactive)	> 100 µM (inactive)	> 100 µM (inactive)	> 100 µM (inactive)	> 100 µM (inactive)	> 100 µM (inactive)	> 100 µM (inactive)	> 100 µM (inactive)	> 100 µM (inactive)	> 100 µM (inactive)	91 µM (inactive)	–	–
Cn1cnc([N+](=O)[O-])c1Sc1nnnn1C	–	19.5 µM (inactive)	7.46 µM (inactive)	23.9 µM (inactive)	17.3 µM (inactive)	13.2 µM (inactive)	56.9 µM (inactive)	15.9 µM (inactive)	> 100 µM (inactive)	14.8 µM (inactive)	18 µM (inactive)	19.4 µM (inactive)	23 µM (inactive)	12.3 µM (inactive)	39.8 µM (inactive)	17.2 µM (inactive)	13.1 µM (inactive)	16.9 µM (inactive)	–	–
